Laboratory results taken from patent US11434227B2, “Broad spectrum antibacterial activity of novel bisbenzimidazoles targeting topoisomerase IA and the synergistic composition of bisbenzimidazole with efflux pump inhibitors against pathogenic bacteria” (Jawaharlal Nehru University (JNU), priority 2016, dated 2022).
≈ marks a conversion by molar mass, not a printed value.

What was measured:
[1] = test system: Salmonella typhimurium (St412); test: Susceptibility (MIC50/MIC90), broth microdilution; conditions: Salmonella enterica
Description: (§1) MICs were determined by the broth microdilution method according to CLSI methods (Clinical and Laboratory Standards Institute, 2005). Inoculants were incubated at 37° C. on cation adjusted Mueller Hinton (MH) Broth for 18 to 24 h. Compound were dissolved in media to 10 doubling dilutions from 128 to 0.125 μg/mL. All the bacterial strains were grown in 96 well plate with low evaporation lid (Falcon, Becton Dickinson) in presence of derivatives of benzimidazoles at 0.125, 0.25, 0.5, 1, 2, 4, 8, 16, 32, 64, 128, 256 μg/mL concentrations. […] Plates were read by Tecan Micro-plate Reader at 600 nm.

Enterococcus sp. (432) = test: Susceptibility (MIC50/MIC90), broth microdilution
Description: as §1

Enterococcus sp. (1121) [2] = test: Susceptibility (MIC50/MIC90), broth microdilution
Description: as §1

E. coli K12 = test: Susceptibility of E. coli K12 and mutants (MIC90); conditions: Escherichia coli
Description: as §1

[3] = test system: E. coli K12 mutant ΔTopIB; test: Susceptibility of E. coli K12 and mutants (MIC90); conditions: Escherichia coli
Description: as §1

[4] = target: E. coli Topoisomerase IA (EcTopoIA) (Escherichia coli, UniProt P06612); test: Topoisomerase IA relaxation inhibition assay; format: biochemical; conditions: compared to DMA
Chain of E. coli Topoisomerase IA (EcTopoIA) (P06612 whole entry): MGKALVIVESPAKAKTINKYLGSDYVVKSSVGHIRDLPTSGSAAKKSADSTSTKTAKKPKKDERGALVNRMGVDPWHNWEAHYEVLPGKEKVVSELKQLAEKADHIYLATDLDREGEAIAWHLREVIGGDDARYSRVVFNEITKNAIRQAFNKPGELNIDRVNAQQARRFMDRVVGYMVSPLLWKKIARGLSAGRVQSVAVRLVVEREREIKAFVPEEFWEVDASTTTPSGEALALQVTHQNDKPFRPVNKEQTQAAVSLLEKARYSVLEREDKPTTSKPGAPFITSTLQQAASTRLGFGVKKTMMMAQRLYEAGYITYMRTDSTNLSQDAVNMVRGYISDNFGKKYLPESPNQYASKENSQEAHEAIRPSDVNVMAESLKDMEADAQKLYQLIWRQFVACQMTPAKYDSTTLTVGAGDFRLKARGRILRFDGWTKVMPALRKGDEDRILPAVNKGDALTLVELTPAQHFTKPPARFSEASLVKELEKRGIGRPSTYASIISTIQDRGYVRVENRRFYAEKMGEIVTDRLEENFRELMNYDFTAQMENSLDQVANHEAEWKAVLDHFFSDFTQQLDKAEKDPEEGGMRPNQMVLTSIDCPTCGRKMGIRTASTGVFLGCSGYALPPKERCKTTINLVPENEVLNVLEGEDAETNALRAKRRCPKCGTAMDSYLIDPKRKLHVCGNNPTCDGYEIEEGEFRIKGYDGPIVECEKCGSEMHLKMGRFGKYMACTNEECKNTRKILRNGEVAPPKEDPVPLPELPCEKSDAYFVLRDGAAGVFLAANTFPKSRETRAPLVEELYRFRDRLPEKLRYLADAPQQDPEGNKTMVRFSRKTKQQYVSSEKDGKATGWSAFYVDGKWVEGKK
Description: E. coli Topoisomerase IA (EcTopoIA) purified protein was diluted in buffer (10 mM Tris-HCl pH 8.0, 50 mM NaCl, 0.1 mg/mL gelatin, 0.5 mM MgCl2). Compounds were added in concentrations 1, 5, 10, 25 and 50 μM to 10 ng of the diluted enzyme present in 20 μL reaction volume. 500 ng of supercoiled pHOT plasmid DNA purified by Qiagen Maxiprep Kit was added. The mixture was incubated at 37° C. for 30 min before termination of the reaction and analysed by agarose gel electrophoresis without Ethidium bromide. The gels were then stained with ethidium bromide which was further photographed over UV transilluminator and analysed by performing densitometry.
Mechanism of inhibition was determined by performing relaxation assay in three different conditions. First, relaxation assay was done with increasing concentrations of Mg^2+ from 0 to 50 mM to find out optimum concentration of Mg^2+ required by EcTopo 1A. Second, relaxation assay was performed with increasing concentration of Mg^2+ in the presence of 5 μM compound and third, reaction we have increased the concentration of compound from 5 to 100 μM in a buffer with 25 mM of MgCl2.

P. aeruginosa (Ps 366) = test: HN12b in combination with efflux pump inhibitors (CB method, FICI)
Description: (§2) 96-well microtiter plates containing MIC25 concentrations of the Efflux pump inhibitor (CCCP, PAβN) and HN12b antimicrobial drugs alone and in CB combination were used. The MICs of the individual drugs HN12b, PAβN and CCCP (0.25 to 128 μg/ml) and of the combinations were determined using the broth microdilution technique as recommended by the CLSI. Briefly, the broth microdilution plates were inoculated with each test organism to yield the appropriate density (10^5 CFU/ml) in 100 μl Mueller-Hinton broth (MHB) and incubated for 24 h at 37° C. in ambient air. One well with no antibiotic was used as a positive growth control on each plate. Plates were read for visual turbidity, and results were recorded after 24 h of incubation at 37° C. in ambient air by using a magnifying mirror reader, as turbidity in wells indicated growth of the microorganism. The MIC was determined as the well in the microtiter plate with the lowest drug concentration at which there was no visible growth. […] MICAB was defined as the MIC of drug A in the presence of drug B; MICBA was defined as the MIC of drug B in the presence of drug A.
(§3) The fractional inhibitory concentration index (FICI) was calculated for each antibiotic in each combination by using the following formula: FICA+FICB=FICI, where FICA equals the MIC of drug A in combination divided by the MIC of drug A alone and FICB equals the MIC of drug B in combination divided by the MIC of drug B alone. The FICIs were interpreted as follows: FICI of ≤0.5 will correspond to synergy; FICI of >0.5 to ≤1 will correspond to additivity; FICI of >1 to ≤4 will correspond to no interaction (indifference), and FICI of >4 will correspond antagonism.

[5] = test system: Acinetobacter baumannii (AB312); test: Susceptibility (MIC50/MIC90), broth microdilution
Description: as §1

[6] = test system: Escherichia coli (ATCC 25922); test: Susceptibility (MIC, PAE, MBC), broth microdilution; conditions: Escherichia coli
Description: as §1

Escherichia coli 392 = test: Susceptibility (MIC50/MIC90), broth microdilution
Description: as §1

[7] = test system: Providencia sp. (MTCC 2102); test: HN12b in combination with efflux pump inhibitors (CB method, FICI); conditions: for FICI: Providencia sp. (MTCC 2102)
Description: as §2, §3

E. coli 118^R = test: Susceptibility (MIC, PAE, MBC), broth microdilution; conditions: Escherichia coli
K. planticola (1164) = test: HN12b in combination with efflux pump inhibitors (CB method, FICI)
Description: as §2, §3

E. coli 401^R = test: Susceptibility (MIC, PAE, MBC), broth microdilution; conditions: Escherichia coli
Description: as §1

[8] = test system: Klebsiella planticola (MTCC 2272); test: Susceptibility (MIC50/MIC90), broth microdilution; conditions: MTCC2272
Description: as §1

[9] = Synergistic effect of CCCP and HN12b in neutropenic thigh infection model; format: in vivo, Balb/c mice; conditions: HN12b 3 mg/kg bw + CCCP 3 mg/kg bw
E. coli 85^R = test: Susceptibility (MIC, PAE, MBC), broth microdilution; conditions: Escherichia coli
Description: as §1

E. coli K12 mutant ΔompC = test: Susceptibility of E. coli K12 and mutants (MIC90); conditions: Escherichia coli
Description: as §1

Enterococcus sp. (1121) [10] = test: HN12b in combination with efflux pump inhibitors (CB method, FICI)
Description: as §2, §3

E. coli ATCC 25922 = test: Mouse systemic infection (septicemia) model; format: in vivo, Balb/c mice
Description: Female Balb/c mice weighing 20-25 g of 6-8 weeks old were injected with E. coli ATCC 25922 (0.5×10^8 CFU in 0.1 mL saline) intraperitoneally. […] Each treatment or control group had 10 mice. Mortality was recorded daily for 7 days post infection.

[11] = test system: Acinetobacter baumannii (MTCC1920); test: Susceptibility (MIC50/MIC90), broth microdilution
Description: as §1

E. coli K12 mutant ΔtolC = test: Susceptibility of E. coli K12 and mutants (MIC90); conditions: Escherichia coli
Description: as §1

[12] = P. aeruginosa (Ps 366), HN12b + CCCP
[13] = ATCC25922, Escherichia coli (ATCC 25922), Table 2
[14] = K. planticola (1164), HN12b + CCCP
[15] = Enterococcus sp. (1121), HN12b + CCCP

For `CCCN1CCN(c2nc3ccc(-c4nc5ccccc5[nH]4)cc3[nH]2)CC1` [HN12b, 2′-(4-propylpiperazine-1-yl)-1H, 3′H-2,5′-bibenzimidazole], which MIC50 [1] is on record?
Its MIC50 is less than 0.25 µg/mL.

What about the MIC90 [1] of the same compound?
The MIC90 was less than 0.25 µg/mL.

What about the MIC50 (Enterococcus sp. (432)) of the same compound?
The MIC50 was less than 0.25 µg/mL.

And the MIC90 (Enterococcus sp. (432))?
The MIC90 was 8.25 µg/mL (≈ 22.9 µM).

And the MIC50 (Enterococcus sp. (1121) [2])?
Its MIC50 is less than 0.25 µg/mL.

And the MIC90 (Enterococcus sp. (1121) [2])?
The MIC90 was 8 µg/mL (≈ 22.2 µM).

And the MIC90 (E. coli K12)?
Its MIC90 is 8 µg/mL (≈ 22.2 µM).

What about the MIC90 [3] of the same compound?
Its MIC90 is 3.8 µg/mL (≈ 10.5 µM).

What about the “Topoisomerase Inhibition activity” value [4] of the same compound?
The value was “improved Topoisomerase Inhibition activity as compared to DMA”.

And the FICI (P. aeruginosa (Ps 366); [12])?
Its FICI is 0.6.

And the Interpretation (P. aeruginosa (Ps 366); [12])?
The Interpretation was “Synergy (FICI of ≤0.5 will correspond to synergy)”.

And the FICI (P. aeruginosa (Ps 366); P. aeruginosa (Ps 366), HN12b + PAβN)?
The FICI was 0.9.

What about the MIC90 (P. aeruginosa (Ps 366); Pseudomonas aeruginosa) of the same compound?
The MIC90 was greater than 128 µg/mL.

And the MIC50 [5]?
The MIC50 was 3.8 µg/mL (≈ 10.5 µM).

And the MIC90 [5]?
The MIC90 was 3.8 µg/mL (≈ 10.5 µM).

And the MBC ([6]; ATCC25922)?
The MBC was 4 µg/mL (≈ 11.1 µM).

And the MIC50 ([6]; ATCC25922, ATCC 25922)?
Its MIC50 is 0.2 µg/mL (≈ 0.555 µM).

What about the MIC90 ([6]; ATCC25922, ATCC 25922) of the same compound?
Its MIC90 is 3.3 µg/mL (≈ 9.15 µM).

And the MIC50 ([6]; ATCC25922, ATCC25922, Table 7)?
The MIC50 was 0.2 ± 0.024 µg/mL (≈ 0.555 µM).

What about the MIC50 [6, 13] of the same compound?
Its MIC50 is 8 µg/mL (≈ 22.2 µM).

And the MIC90 [6, 13]?
The MIC90 was 26.6 µg/mL (≈ 73.8 µM).

What about the MIC50 (Escherichia coli 392) of the same compound?
Its MIC50 is 17.9 µg/mL (≈ 49.7 µM).

What about the MIC90 (Escherichia coli 392) of the same compound?
Its MIC90 is 64.5 µg/mL (≈ 179 µM).

And the FICI ([7]; HN12b + CCCP)?
The FICI was 0.6.

And the FICI ([7]; HN12b + PAβN)?
The FICI was 1.

And the MIC90 ([7]; Providencia, MTCC2102)?
The MIC90 was greater than 128 µg/mL.

What about the MBC (E. coli 118^R) of the same compound?
Its MBC is 2 µg/mL (≈ 5.55 µM).

And the MIC50 (E. coli 118^R)?
Its MIC50 is 1 µg/mL (≈ 2.77 µM).

What about the MIC90 (E. coli 118^R) of the same compound?
The MIC90 was 1.7 µg/mL (≈ 4.72 µM).

And the FICI (K. planticola (1164); [14])?
The FICI was 0.5.

What about the Interpretation (K. planticola (1164); [14]) of the same compound?
The Interpretation was “Synergy (FICI of ≤0.5 will correspond to synergy)”.

And the FICI (K. planticola (1164); K. planticola (1164), HN12b + PAβN)?
Its FICI is 1.

And the MIC90 (K. planticola (1164); Klebsiella planticola)?
The MIC90 was 128 µg/mL.

And the MBC (E. coli 401^R)?
The MBC was 2 µg/mL (≈ 5.55 µM).

And the MIC50 (E. coli 401^R)?
Its MIC50 is 1 µg/mL (≈ 2.77 µM).

What about the MIC90 (E. coli 401^R) of the same compound?
The MIC90 was 1.7 µg/mL (≈ 4.72 µM).

What about the MIC50 [8] of the same compound?
The MIC50 was 30 µg/mL (≈ 83.3 µM).

And the MIC90 [8]?
Its MIC90 is 128 µg/mL (≈ 355 µM).

What about the “in vivo efficacy in combination with CCCP” value [9] of the same compound?
The value was “further improves”.

What about the MBC (E. coli 85^R) of the same compound?
Its MBC is 2 µg/mL (≈ 5.55 µM).

What about the MIC50 (E. coli 85^R) of the same compound?
The MIC50 was 1 µg/mL (≈ 2.77 µM).

What about the MIC90 (E. coli 85^R) of the same compound?
The MIC90 was 1.7 µg/mL (≈ 4.72 µM).

What about the MIC90 (E. coli K12 mutant ΔompC) of the same compound?
Its MIC90 is 3.8 µg/mL (≈ 10.5 µM).

What about the MIC90 (Enterococcus sp. (1121) [10]; Enterococcus) of the same compound?
Its MIC90 is 8 µg/mL.

What about the FICI (Enterococcus sp. (1121) [10]; [15]) of the same compound?
The FICI was 0.5.

What about the Interpretation (Enterococcus sp. (1121) [10]; [15]) of the same compound?
Its Interpretation is “Synergy (FICI of ≤0.5 will correspond to synergy)”.

What about the FICI (Enterococcus sp. (1121) [10]; Enterococcus sp. (1121), HN12b + PAβN) of the same compound?
The FICI was 1.

What about the ED50 (E. coli ATCC 25922; Escherichia coli, iv, 168 h, Septicemia, ATCC25922, single i.v. bolus, survival over 7 days) of the same compound?
The ED50 was 5 mg/kg.

What about the in vivo efficacy (E. coli ATCC 25922; Septicaemia model, E. coli ATCC 25922) of the same compound?
Its in vivo efficacy is “good in vivo efficacy”.

And the MIC50 [11]?
The MIC50 was greater than 128 µg/mL.

And the MIC90 [11]?
Its MIC90 is 128 µg/mL (≈ 355 µM).

And the MIC90 (E. coli K12 mutant ΔtolC)?
Its MIC90 is 0.5 µg/mL (≈ 1.39 µM).
